These results are taken from PMC6192554, “In vitro toxicity and efficacy of verdinexor, an exportin 1 inhibitor, on opportunistic viruses affecting immunocompromised individuals” (PLoS ONE, 2018).

Broadly, the EC50 is the concentration giving half of the maximal effect. By CC50 is commonly meant the concentration that lowers cell viability or growth by half. The low end stands for harm at low concentration, the high end for better tolerance by the cells. As a reminder, the fraction unbound is the share of the substance not bound to proteins or other matrix.

Data set [1] relates to Human adenovirus type 5. The data set is described as follows: Adenovirus virus yield (TCID50) assay in HeLa cells. Conditions: Human mastadenovirus C. It counts as cell-based. As for the experimental part: Human adenovirus type 5 was obtained from ATCC and cultured in HeLa cells under standard conditions.
Prior to assessing cell viability using MTS, supernatants were collected from plates and titrated to determine virus yield. Serial dilutions of supernatants were incubated on HeLa cells for 3 days. Following incubation, wells were visually scored for infection and TCID50, EC50, CC50 and SI were calculated for each sample.

Data set [2] deals with BK polyomavirus (BKPyV) Gardner strain. The data set is described as follows: BKPyV qPCR genome copy assay in HFF cells. It counts as cell-based. Conditions: Betapolyomavirus hominis. As for the experimental part:
John Cunningham polyomavirus (JCPyV) strains MAD-1 and MAD-4 and BK polyomavirus (BKPyV) Gardner strain were obtained from ATCC. COS-7 cells were obtained from ATCC and maintained according to ATCC-supplied protocols.
Primary assays for BKPyV were performed in 384-well plates containing monolayers of HFF cells. Compound dilutions ranging from 0.0032–100μM were prepared in plates containing cells which were subsequently infected at an MOI of 0.001. After a 7d incubation, total DNA was prepared using Extracta and genome copy number was quantified by qPCR using the primers and probe listed in S1 Table [18]. Plasmid pMP526 served as the DNA standard for quantification purposes. Compounds were confirmed in a similar assay in 96-well plates according to established laboratory protocols with the compounds added 1h […] to identify compounds that inhibit early stages of replication including adsorption and entry. Genome copy number was determined by methods described above.

The test system of data set [3] is HPV-11. The data set is described as follows: HPV-11 transient origin-plasmid replication assay in HEK293 cells (qPCR). In kind it is cell-based, human papillomavirus. Conditions: Human papillomavirus, HPV-11, primary screen. As for the experimental part:
(§1) HPV-11 and -18 were tested in HEK293 cells and primary human keratinocytes (PHK), respectively. PHKs were isolated from neonatal foreskins following circumcision according to IRB-approved protocols at UAB. They were grown in keratinocyte serum-free medium (Life Technologies) with mitomycin C-treated J2 feeder cells (Swiss 3T3 J2 fibroblasts; Elaine Fuchs, Rockefeller University). HEK 293 cells were maintained under standard conditions.
Quantification of virus was determined via transient replication of an HPV-11 replication origin-containing plasmid in HEK293 cells co-transfected with an HPV-11 replicative DNA helicase E1 and origin binding E2 protein [20]. 293 cells were cultured with test compounds added 4hr post-transfection for 2 days. Low molecular weight DNA was isolated, digested with Dpn1 and exonuclease III to eliminate unreplicated DNA. The Dpn1-resistant DNA was then subjected to qPCR analyses amplifying a small portion of the replication origin [20]. In a negative control, the E1 expression vector was omitted or cultures were treated with the inhibitor cidofovir.

A short description of data set [4]: Cytotoxicity in HEK293 cells (cell counter viability). It counts as cell-based. Conditions: human, HPV-11 primary screen. As for the experimental part:
Cytotoxicity assays: Concurrent assessment of cytotoxicity was also performed for each study in the same cell line and with the same compound exposure.
HPV cytotoxicity assay was performed at the time of viral harvest by scoring cells in a BioRad Automatic Cell Counter for cell viability.

Data set [5] relates to HPV-18. The data set is described as follows: HPV-18 DNA amplification in organotypic raft culture of PHKs (qPCR). In kind it is cell-based, human papillomavirus. As for the experimental part: as §1
For secondary assays, the amplification of HPV-18 DNA was determined in an organotypic squamous epithelial raft culture of PHKs. Whole genomic HPV-18 plasmids were generated in plasmid-transfected PHKs and developed into organotypic cultures as described. Based on the results of a 3-day toxicity assay, concentrations of test compound were added to a subset of raft cultures from day 6 through day 13 when the cultures were harvested. Similarly treated normal PHK raft cultures were also prepared to assess toxicity of uninfected tissue. One set of cultures were fixed in 10% buffered formalin, paraffin embedded and sectioned for in situ assay. Sections were stained with hematoxylin and eosin. Total DNA harvest from unfixed raft cultures was used to determine the HPV-18 copy number/per cell by qPCR. Inhibition was expressed as % of viral DNA copies relative to the untreated cultures.
A general note: Quantitative PCR measures a nucleic acid by following its amplification.

The nature of data set [6]: Serum protein binding. In kind it is in vitro ADME. Conditions: human, humans. As for the experimental part:
(§2) Serum concentrations with Verdinexor have been previously established in in vivo models of influenza in both mice and ferrets. In mice receiving 10mg/kg and ferrets receiving 5mg/kg, max plasma concentration of verdinexor was approximately 1200 (ng/mL) however, the half life in mice was extended (6 hours) as compared to that of ferrets (2 hours). Serum protein binding of verdinexor in humans is 98.4%. […] A Phase 1, Randomized, Double-Blind, Placebo-Controlled, Sequential, Dose-Escalating Trial to Evaluate the Safety and Tolerability of Oral Verdinexor (KPT-335) in Healthy Adult Subjects was conducted in Nucleus Network, Melbourne, Victoria, Australia [ClinicalTrials.gov: NCT02431364]. No study results are currently posted for this study. Furthermore, a clinical study was submitted to the USA FDA on IND#122718. This phase 1a, Randomized, Double-Blind, Placebo-Controlled, Sequential, Dose-Escalating Trial of Single and Multi-Dose oral verdinexor (KPT-335) to Evaluate the Safety and Tolerability in Healthy Elderly Volunteers is yet to be initiated and recruit subjects.

Data set [7] deals with 104 principal receptor/ligand interactions. The data set is described as follows: Off-target panel of in vitro protein binding assays. Conditions: 10 μM; 104 receptor/ligand interactions. As for the experimental part:
as §2

Data set [8] addresses histamine H1 receptor (Homo sapiens, UniProt P35367). The data set is described as follows: Histamine H1 receptor functional activity assay, antagonist. In kind it is biochemical. Conditions: Study No. KS-1017, read-out: IC50 (50% inhibitory concentration).
Data set [9] concerns Rev-GFP fusion. Further details: method as in PMID 3025240. Conditions: read-out: EC50, forced nuclear retention of Rev-GFP fusion; cited from earlier work.
Data set [10] has as its system HIV. On the set-up: method as in PMID 3025240. Conditions: PBMCs from healthy donors; read-out: EC50, anti-HIV activity; cited from earlier work.

Some results are limits rather than exact numbers.

Sequence of histamine H1 receptor (P35367 whole entry, species assumed, the tested form may be a part): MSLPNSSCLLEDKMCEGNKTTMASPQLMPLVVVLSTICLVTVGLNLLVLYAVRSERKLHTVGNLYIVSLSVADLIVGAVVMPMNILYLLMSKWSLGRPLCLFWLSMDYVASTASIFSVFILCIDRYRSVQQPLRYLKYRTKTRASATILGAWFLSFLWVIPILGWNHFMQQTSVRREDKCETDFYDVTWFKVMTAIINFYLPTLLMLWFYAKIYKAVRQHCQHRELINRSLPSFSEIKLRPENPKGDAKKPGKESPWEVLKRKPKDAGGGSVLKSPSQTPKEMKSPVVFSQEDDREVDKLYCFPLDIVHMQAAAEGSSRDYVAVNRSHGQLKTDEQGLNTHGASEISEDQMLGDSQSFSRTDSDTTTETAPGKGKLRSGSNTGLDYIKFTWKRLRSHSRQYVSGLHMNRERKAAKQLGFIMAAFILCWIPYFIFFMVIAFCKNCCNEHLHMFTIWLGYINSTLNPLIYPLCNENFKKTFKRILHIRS

For the compound `O=C(C=Cn1cnc(-c2cc(C(F)(F)F)cc(C(F)(F)F)c2)n1)NNc1ccccn1` (stereo in doubt) [verdinexor, (E)-3-[3-[3,5-bis(trifluoromethyl)phenyl]-1,2,4-triazol-1-yl]-N'-pyridin-2-ylprop-2-enehydrazide], the EC50 is greater than 180 nM in [1] (Ad5, primary screen); less than 30 nM in data set [1] (Ad5, secondary screen); 7620 nM in data set [2] (primary screen); 2290 nM in [2] (secondary screen, compound added 1h post-infection); 1650 nM in data set [3]; 8300 nM in data set [5] (Human papillomavirus). The results for the EC50 in data set [9] and in data set [10] were 160 nM and 116 ± 54 nM, respectively. The same compound showed a CC50 in data set [4] of 89600 nM. The “efficacy against HPV-18” value in data set [5] (secondary screen, PHKs) was “did not show efficacy”. This compound had a fraction unbound in data set [6] of 0.016. In addition, the “effect on off-target panel” value in data set [7] was “none of the enzymes, receptors, transporters, kinases, or cysteine proteases were significantly affected”. For the same compound, the IC50 in data set [8] was greater than 10000 nM.
